Earlier results on 2 compounds are cited in patent US8183365B2, “Synthetic method for ceratamine A and B and analogs thereof” (The Ohio State University, priority 2009, dated 2012).

The conditions of this data set: cell-based assay; natural products isolated from sponge Pseudoceratina sp.

In the case of `CNc1nc2ccn(C)c(=O)c(Cc3cc(Br)c(OC)c(Br)c3)c-2n1` [ceratamine A, Ceratamine A], the antimitotic activity result is recorded as “possess antimitotic activity”. As for Ceratamine B, the antimitotic activity result is “possess antimitotic activity”.
